According to ChEMBL document CHEMBL1138686, “Discovery of potent antagonists of the antiapoptotic protein XIAP for the treatment of cancer” (J Med Chem, 2004):
Several values for one entry are separate records, joined by “and”; a condition that tells them apart may be missing. Equal values may be shown once. Numbered stars: 1 amine (or outer) side, 2 acyl side, 3 side chain; on linkers, the order of the positions; unused ones are H or OH. Square brackets hold non-standard residues; d marks the D form. Peptide text beside a SMILES is read from it. ξ: configuration not given here. Phe(4-Cl) = N[C@@H](Cc1ccc(Cl)cc1)C(=O)O; 1Nal = N[C@@H](Cc1cccc2ccccc12)C(=O)O; 2Nal = N[C@@H](Cc1ccc2ccccc2c1)C(=O)O; X1 = O=C([C@@H]1CC(O)CN1[*:1])[*:2]; hPhe = N[C@@H](CCc1ccccc1)C(=O)O; Phg = N[C@H](C(=O)O)c1ccccc1; Tle = CC(C)(C)[C@H](N)C(=O)O; Nle = CCCC[C@H](N)C(=O)O; ξPip = O=C(O)C1CCCCN1; Aib = CC(C)(N)C(=O)O; ξNMeA = CNC(C)C(=O)O; ξAze = O=C(O)C1CCN1; Sar = CNCC(=O)O

Tests used:
[1] = The compound was tested for toxicity against human NSCL cancer cell line NCI-H23; type: functional, cell-based; settings: cancer cell lines
[2] = The compound was tested for toxicity against human ovarian cancer cell line SK-OV-3; type: functional, cell-based; settings: cancer cell lines
[3] = The compound was tested for toxicity against human NSCL cancer cell line NCI-H522; type: functional, cell-based; settings: cancer cell lines
[4] = system: SK-MEL-5; assay: cells; settings: Homo sapiens
Description: The compound was tested for toxicity against human melanoma cancer cell line SK-MEL-5

[5] = The compound was tested for toxicity against human breast cancer cell line BT-549; type: functional, cell-based; settings: cancer cell lines
[6] = The compound was tested for toxicity against human renal cancer cell line RXF-393; type: functional, cell-based; settings: cancer cell lines
[7] = The compound was tested for toxicity against human breast cancer cell line MDA-MB-231; type: functional, cell-based; settings: cancer cell lines
[8] = system: HL-60; assay: cells; settings: Homo sapiens
Description: The compound was tested for toxicity against human leukemia cancer cell line HL-60

[9] = target: T1, E3 ubiquitin-protein ligase XIAP (Homo sapiens, UniProt P98170); assay: Binding affinity to the BIR3 domain of X-linked IAP
T1 sequence (P98170 whole entry, the tested form may be a part): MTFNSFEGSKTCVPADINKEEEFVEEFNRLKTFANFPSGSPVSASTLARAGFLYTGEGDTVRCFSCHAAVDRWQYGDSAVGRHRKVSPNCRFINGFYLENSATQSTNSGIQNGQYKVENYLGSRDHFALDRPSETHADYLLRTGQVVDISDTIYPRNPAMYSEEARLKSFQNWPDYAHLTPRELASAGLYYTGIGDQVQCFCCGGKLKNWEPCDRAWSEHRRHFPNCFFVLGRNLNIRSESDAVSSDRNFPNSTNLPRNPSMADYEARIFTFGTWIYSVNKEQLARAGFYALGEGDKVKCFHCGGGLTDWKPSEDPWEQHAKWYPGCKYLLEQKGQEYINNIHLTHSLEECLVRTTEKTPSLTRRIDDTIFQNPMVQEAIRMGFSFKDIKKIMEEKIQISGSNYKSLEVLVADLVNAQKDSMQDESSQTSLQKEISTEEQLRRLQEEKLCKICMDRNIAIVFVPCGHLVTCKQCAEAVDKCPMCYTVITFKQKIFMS

[10] = target: T1, E3 ubiquitin-protein ligase XIAP; assay: Relief of caspase inhibition in reconstituted assay (APAF-1, caspase-9, procaspase-3) with XIAP
[11] = target: T1, E3 ubiquitin-protein ligase XIAP; assay: Relief of caspase inhibition in reconstituted assay (APAF-1, caspase-9, procaspase-3) with BIR3 domain of XIAP

Compound | Kd [9] | also measured
CN[C@@H](C)C(=O)N[C@H](C(=O)N1CCC[C@H]1C(=O)N[C@@H]1CCCc2ccccc21)C(C)(C)C |  | EC50 [1]: 5300 nM; EC50 [2]: 1500 nM; EC50 [3]: 1700 nM; EC50 [4]: 1300 nM; EC50 [5]: 10 nM; EC50 [6]: 810 nM; EC50 [7]: 60 nM; EC50 [8]: 990 nM
CC(C)[C@@H](NC(=O)[C@H](C)N)C(=O)N1CCC[C@H]1C(=O)N[C@@H](Cc1ccccc1)C(=O)N[C@@H](Cc1ccc(O)cc1)C(=O)O | 90 nM and 120 nM | 
CN[C@@H](C)C(=O)N[C@H](C(=O)N1CCC[C@H]1C(=O)N[C@H]1CCCc2ccccc21)C(C)(C)C |  | EC50 [2]: 5600 nM; EC50 [7]: 3000 nM
C[C@@H](C(=O)N[C@H](C(=O)N1CCC[C@H]1C(=O)N[C@@H]1CCCc2ccccc21)C1CCCCC1)N(C)C |  | EC50 [1]: > 50000 nM; EC50 [2]: > 25000 nM; EC50 [3]: > 50000 nM; EC50 [4]: 15000 nM; EC50 [5]: 1000 nM; EC50 [6]: > 50000 nM; EC50 [7]: 3400 nM; EC50 [8]: 4300 nM
CN[C@@H](C)C(=O)N[C@H](C(=O)N1CCC[C@H]1C(=O)N[C@@H]1CCCc2ccccc21)C1CCCCC1 |  | EC50 [1]: 1500 nM; EC50 [2]: 1300 nM; EC50 [3]: 2000 nM; EC50 [4]: 290 nM; EC50 [5]: 7 nM; EC50 [6]: 1100 nM; EC50 [7]: 10 nM; EC50 [8]: 190 nM
CC(C)[C@@H](C(=O)N1CCC[C@H]1C(=O)N[C@@H](Cc1ccccc1)C(=O)N[C@@H](Cc1ccc(O)cc1)C(=O)O)N(C)C | 8700 nM | 
CC(C(=O)N[C@H](C(=O)N1C[C@@H](Oc2ccccc2)C[C@H]1C(=O)NC1CCCc2ccccc21)C(C)(C)C)N(C)C (some centres not stated) | > 1000 nM | EC50 [10]: > 100000 nM; EC50 [11]: > 100000 nM
CC(C)[C@H](NC(=O)[C@H](C)N)C(=O)N1CCC[C@H]1C(=O)NC(C)(C)C(=O)N[C@@H](Cc1ccc(O)cc1)C(=O)O (H-AVP[Aib]Y-OH) | 6700 nM | 
CCCC[C@H](NC(=O)[C@@H]1CCCN1C(=O)[C@@H](NC(=O)[C@H](C)N)C(C)C)C(=O)N[C@@H](Cc1ccc(O)cc1)C(=O)O (H-AVP[Nle]Y-OH) | 900 nM | 
CC(C)[C@H](NC(=O)[C@H](C)N)C(=O)NC(C)(C)C(=O)N[C@@H](Cc1ccccc1)C(=O)N[C@@H](Cc1ccc(O)cc1)C(=O)O (H-AV[Aib]FY-OH) | > 20000 nM | 
CC(C)[C@H](NC(=O)[C@H](C)N)C(=O)N(C)C(C)C(=O)N[C@@H](Cc1ccccc1)C(=O)N[C@@H](Cc1ccc(O)cc1)C(=O)O (some centres not stated) (H-AV[ξNMeA]FY-OH) | 1600 nM | 
C[C@H](N)C(=O)NC(C)(C)C(=O)N1CCC[C@H]1C(=O)N[C@@H](Cc1ccccc1)C(=O)N[C@@H](Cc1ccc(O)cc1)C(=O)O (H-A[Aib]PFY-OH) | > 20000 nM | 
CC(C(=O)N1CCC[C@H]1C(=O)N[C@@H](Cc1ccccc1)C(=O)N[C@@H](Cc1ccc(O)cc1)C(=O)O)N(C)C(=O)[C@H](C)N (some centres not stated) (H-A[ξNMeA]PFY-OH) | > 20000 nM | 
CC(C)C(NC(=O)[C@H](C)N)C(=O)N1CCC[C@H]1C(=O)N[C@@H](Cc1ccccc1)C(=O)N[C@@H](Cc1ccc(O)cc1)C(=O)O (single isomer, unassigned) | > 20000 nM | 
CNC(C)C(=O)N[C@H](C(=O)N1CCC[C@H]1C(=O)N[C@@H]1CCCc2ccccc21)C(C)(C)C (single isomer, unassigned) |  | EC50 [2]: > 50000 nM; EC50 [7]: 8300 nM
H-AGPFY-OH | 2700 nM | 
H-AVGFY-OH | 3000 nM | 
H-AVPFG-OH | 3400 nM | 
H-GVPFY-OH | 9600 nM | 
H-VVPFY-OH | 900 nM | 

Further compounds by falling Kd [9], results first:

Kd [9] | Compound | also measured
800 nM | CC(C)[C@H](NC(=O)[C@H](C)N)C(=O)N1CC(O)C[C@H]1C(=O)N[C@@H](Cc1ccccc1)C(=O)N[C@@H](Cc1ccc(O)cc1)C(=O)O (some centres not stated) (H-AV[X1]FY-OH) | 
600 nM | CC(C)[C@H](NC(=O)[C@H](C)N)C(=O)N(C)CC(=O)N[C@@H](Cc1ccccc1)C(=O)N[C@@H](Cc1ccc(O)cc1)C(=O)O (H-AV[Sar]FY-OH) | 
400 nM | CC(C)[C@H](NC(=O)[C@H](C)N)C(=O)N1CCCCC1C(=O)N[C@@H](Cc1ccccc1)C(=O)N[C@@H](Cc1ccc(O)cc1)C(=O)O (some centres not stated) (H-AV[ξPip]FY-OH) | 
360 nM | H-AVPIY-OH | 
300 nM | H-AVPYY-OH | 
280 nM | H-AVPLY-OH | 
190 nM | CC(C)[C@H](NC(=O)[C@H](C)N)C(=O)N1CCC[C@H]1C(=O)N[C@@H](Cc1ccc2ccccc2c1)C(=O)N[C@@H](Cc1ccc(O)cc1)C(=O)O (H-AVP[2Nal]Y-OH) | 
180 nM | CC(C)[C@H](NC(=O)[C@H](C)N)C(=O)N1CCC[C@H]1C(=O)N[C@@H](Cc1ccc(Cl)cc1)C(=O)N[C@@H](Cc1ccc(O)cc1)C(=O)O (H-AVP[Phe(4-Cl)]Y-OH) | 
180 nM | CC(C)[C@H](NC(=O)[C@H](C)N)C(=O)N1CCC[C@H]1C(=O)N[C@@H](CCc1ccccc1)C(=O)N[C@@H](Cc1ccc(O)cc1)C(=O)O (H-AVP[hPhe]Y-OH) | 
160 nM | CC(C)C[C@@H](NC(=O)[C@H](C)N)C(=O)N1CCC[C@H]1C(=O)N[C@@H](Cc1ccccc1)C(=O)N[C@@H](Cc1ccc(O)cc1)C(=O)O | 
120 nM | CC(C)[C@H](NC(=O)[C@H](C)N)C(=O)N1CCC1C(=O)N[C@@H](Cc1ccccc1)C(=O)N[C@@H](Cc1ccc(O)cc1)C(=O)O (some centres not stated) (H-AV[ξAze]FY-OH) | 
90 nM | CC(C)[C@H](NC(=O)[C@H](C)N)C(=O)N1CCC[C@H]1C(=O)N[C@@H](Cc1cccc2ccccc12)C(=O)N[C@@H](Cc1ccc(O)cc1)C(=O)O (H-AVP[1Nal]Y-OH) | 
50 nM | H-AKPFY-OH | 
40 nM | CN[C@@H](C)C(=O)N[C@H](C(=O)N1CCC[C@H]1C(=O)NC1c2ccccc2-c2ccccc21)C(C)(C)C | 
40 nM | C[C@H](N)C(=O)N[C@H](C(=O)N1CCC[C@H]1C(=O)N[C@@H](Cc1ccccc1)C(=O)N[C@@H](Cc1ccc(O)cc1)C(=O)O)C(C)(C)C (H-A[Tle]PFY-OH) | 
30 nM | CC(C)[C@H](NC(=O)[C@H](C)N)C(=O)N1CCC[C@H]1C(=O)N[C@H](C(=O)N[C@@H](Cc1ccc(O)cc1)C(=O)O)c1ccccc1 (H-AVP[Phg]Y-OH) | 
20 nM | CN[C@@H](C)C(=O)N[C@H](C(=O)N1CCC[C@H]1C(=O)N[C@@H]1CCc2ccccc21)C(C)(C)C | 
